Holding throughout (assay type): cell-based
The subject of test [1] is ENO1-rescued (D423 ENO1) glioma cells. The test is described as follows: cells. As to conditions: for activity in cell proliferation assay (FIG. 1): 5 days. The method, then:
(§1) FIGS. 1A, 1B, 1C, and 1D show cell proliferation assays for enolase inhibitors HEX (1A), FLM37 (1B), CDP18 (1C), and VCY32 (1D) against (i) ENO1-deleted (D423), (ii) ENO1-rescued (D423 ENO1), and (iii) ENO1-wildtype (LN319) glioma cells. Cells were incubated with pro-drug inhibitor for 5 days. Then, cells were fixed and stained with crystal violet and quantified spectroscopically. Numerical labels indicate concentration of enolase inhibitor in nM.
(§2) FIGS. 2A, 2B, and 2C show plots of relative cell density (vertical axis) against concentration (horizontal axis, nM) of enolase inhibitors FLM37 (2A), CDP18 (2B), and VCY32 (2C) for (i) ENO1-deleted (D423), (ii) ENO1-rescued (D423 ENO1), and (iii) ENO1-wildtype (LN319) glioma cells.
(§3) See, Leonard et al. (2016) Nat. Chem. Biol. 12:1053-1058 and Satani et al. (2016) PLos One, 11:e0168739, each of which is incorporated by reference for all purposes. Then, cells were fixed and stained with crystal violet and quantified spectroscopically. Cell density as measured by crystal violet were plotted as a function of inhibitor.
(§4) FIGS. 1A, 1B, 1C, and 1D show representative cell proliferation assays for the compounds HEX (1A), FLM37 (1B), CDP18 (1C), and VCY32 (1D). For each compound, assays are run against (i) ENO1-deleted (D423), (ii) ENO1-rescued (D423 ENO1), and (iii) ENO1-wildtype (LN319) glioma cells.

The subject of test [2] is ENO1-deleted (D423) glioma cells. The test is described as follows: Crystal violet cell proliferation assay, ENO1-deleted D423 cells. As to conditions: for IC50: Glioma cell. The method, then:
as §1, §2
(§5) Numerical labels indicate concentration of enolase inhibitor in nM.
as §3, §4

Test [3] deals with ENO1-wildtype (LN319) glioma cells. The test is described as follows: Crystal violet cell proliferation assay, ENO1-wildtype LN319 cells. As to conditions: for activity in cell proliferation assay (FIG. 1): 5 days. The method, then:
as §1, §2, §5, §3, §4

[4] abbreviates: Glioma cell, table of Formula V compounds, R6 = POM, read-out: IC50, D423 EN01 (ENO1 +/+).
Where [5] appears, read: ENO1-deleted (D423), read-out: IC50,D423 (ENO1−/−).
[6] abbreviates: LN-319, ENO1-wildtype (LN319), read-out: IC50, LN319 (ENO1+/+).
Setting [7] is: Glioma cell, footnote, experiment with VCY32, read-out: IC50 in reference to respective POMHEX control.
[8] abbreviates: table of Formula V compounds, R6 = POM, read-out: IC50, D423 EN01 (ENO1 +/+).

Where two headings read alike, the source gives them in different places.

`CC(C)(C)C(=O)OCOP(=O)(NCc1cccc(F)c1)C1CCCN(O)C1=O` (stereo not drawn) [CDP12, ((((3-fluorobenzyl)amino)(1-hydroxy-2-oxopiperidin-3-yl)phosphoryl)oxy)methyl pivalate]: in test [1] (setting [4]), the IC50 turned out to be 103 nM.
For `CN(C)P(=O)(OCOC(=O)C(C)(C)C)C1CCCN(O)C1=O` (stereo not drawn) [CDP21, (((dimethylamino)(1-hydroxy-2-oxopiperidin-3-yl)phosphoryl)oxy)methyl pivalate], the “selectivity for ENO1-deleted cells” value in test [2] is listed as “selective for ENO1-deleted cells”. The IC50 in test [2] (120 h) was found to be 108 nM; in test [2] (read-out: IC50,D423 (ENO1−/−)), 108 nM; in test [3] (LN-319, read-out: IC50, LN319 (ENO1+/+)) it was 5060 nM; in test [1] (Glioma cell, read-out: IC50, D423 EN01 (ENO1 +/+)), 115 nM; in test [1] (Glioma cell, read-out: IC50,D423 ENO1 (ENO1+/+)), 2170 nM.
On to `CCCCCCCCCCCCNP(=O)(O)C1CCCN(O)C1=O` (stereo not drawn) [CDP22, N-dodecyl-P-(1-hydroxy-2-oxopiperidin-3-yl)phosphonamidic acid], for which the “level of inhibition of ENO1-deleted (D423) cells (FIG. 3), in words” value in test [2] (ENO1-deleted (D423)) was “sub-micromolar levels”. In addition, the IC50 came to 58 nM in test [2] (setting [5]); 844 nM in test [3] (setting [6]); 24 nM in test [3] (LN-319, text b400, read-out: IC50 values for ENO1-wildtype (LN319) glioma cells (i) (FIGS. 4A, 4B)). Also, the “inhibition / activity in ENO1-wildtype (LN319) cells (FIG. 3)” value in test [3] (ENO1-wildtype (LN319)) is recorded as “shows activity”.
As for `CNP(=O)(OCOC(=O)C(C)(C)C)C1CCCN(O)C1=O` (stereo not drawn) [CDP23, (((1-hydroxy-2-oxopiperidin-3-yl)(methylamino)phosphoryl)oxy)methyl pivalate], the “greater potency compared to CDP21” value in test [2] is “more than 2.5 fold”. For the same molecule, the IC50 in test [2] (120 h, D423 cells, 5 days incubation, crystal violet, read-out: IC50) was 40 nM; in test [2] (setting [5]), 40 nM; in test [3] (setting [6]), 1500 nM; in test [1] (Glioma cell, ENO1-rescued (D423 ENO1), read-out: IC50,D423 ENO1 (ENO1+/+)) it was 790 nM; in test [1] (setting [4]) it was 62.6 nM. In addition, the “selectivity for ENO1-deleted cells” value in test [2] (crystal violet cell proliferation assay, 5 days) was “selective for ENO1-deleted cells”.
Turning to `CC(C)(C)C(=O)OCOP(=O)(NCc1ccccc1)C1CCCN(O)C1=O` (stereo not drawn) [FLM37, (((benzylamino)(1-hydroxy-2-oxopiperidin-3-yl)phosphoryl)oxy)methyl pivalate], the “activity in cell proliferation assay (FIG. 1)” value (“activity … (FIG. 1)” below) is listed as “activity at the micromolar range or better” in test [2] (ENO1-deleted (D423), 5 days); “activity at the micromolar range or better” in test [3] (ENO1-wildtype (LN319)); “activity at the micromolar range or better” in test [1] (ENO1-rescued (D423 ENO1)). The IC50 in test [1] (setting [4]) stood at 244 nM.
Consider `CC(C)(C)C(=O)OCOP(=O)(NCc1ccccn1)C1CCCN(O)C1=O` (stereo not drawn) [KY9, (((1-hydroxy-2-oxopiperidin-3-yl){(pyridin-2-ylmethyl)amino)phosphoryl)oxy)methyl pivalate], for which the IC50 in test [1] (setting [4]) is 96.2 nM.
With `CC(C)(C)C(=O)OCOP(=O)(OCOC(=O)C(C)(C)C)C1CCCN(O)C1=O` (stereo not drawn) [POMHEX, (((1-hydroxy-2-oxopiperidin-3-yl)phosphoryl)bis(oxy))bis(methylene) bis(2,2-dimethylpropanoate), reference compound], the IC50 in test [1] (setting [7]) is 41.5 nM; in test [1] (Glioma cell, footnote, experiment with VCY34, read-out: IC50 in reference to respective POMHEX control), 217 nM; in test [1] (setting [4]), 17.3 nM.
`CC(C)(C)C(=O)OCOP(=O)(NCc1ccc(F)cc1)C1CCCN(O)C1=O` (stereo not drawn) [VCY19, ((((4-fluorobenzyl)amino)(1-hydroxy-2-oxopiperidin-3-yl)phosphoryl)oxy)methyl pivalate]: the IC50 in test [1] (setting [4]) was 129 nM.
With `CC(C)(C)C(=O)OCOP(=O)(NCC1CC1)C1CCCN(O)C1=O` (stereo not drawn) [VCY32, ((((Cyclopropylmethyl)amino)(1-hydroxy-2-oxopiperidin-3-yl)phosphoryl)oxy)methyl pivalate], the “activity … (FIG. 1)” value was “activity at the micromolar range or better” in test [2] (ENO1-deleted (D423), 5 days); “activity at the micromolar range or better” in test [3] (ENO1-wildtype (LN319)); “activity at the micromolar range or better” in test [1] (ENO1-rescued (D423 ENO1)). Further, the IC50 in test [1] (setting [7]) and in test [1] (setting [4]) was 22 nM in each case.
Take “((((2,4-difluorobenzyi)amino)(1-hydrnxy-2-oxopiperidin-3-yl)phosphoryl)oxy)methyl pivalate [CDP14]”: the IC50 in test [1] (setting [8]) turned out to be 80.3 nM.
In the case of “((((3,4-difluornhenzyl)amino)(1-hydro:xy-2-oxopiperidin-3-yl)phosphoryl)oxy)methyl pivalate [CDP13]”, in test [1] (setting [8]), the IC50 was found to be 84.6 nM.
In the case of “((((Cyclohexylmethyl)amino)(1-hydro:xy-2-oxopiperidin-3-yl)phosphoryl)oxy)methyl pivalate [CDP18]”, the “activity … (FIG. 1)” value in test [2] (ENO1-deleted (D423), 5 days) is “activity at the micromolar range or better”; in test [3] (ENO1-wildtype (LN319)), “activity at the micromolar range or better”; in test [1] (ENO1-rescued (D423 ENO1)), “activity at the micromolar range or better”. For the same molecule, the IC50 in test [1] (setting [8]) worked out at 81.1 nM.

Values taken from patent publication US20230167142A1, “METHODS FOR THE MONO-AMIDATION OF PHOSPHATES AND PHOSPHONATES” (Board of Regents, The University of Texas System, priority 2020, published 2023).
